Data on 32 compounds can be found in PubChem BioAssay AID602211 (Sanford-Burnham Center for Chemical Genomics, 2012).

The test system of this assay is H9c2 cardiomyocytes, H2O2 protection, ATPLite viability, 2 h. The assay is described as follows: H2O2-induced H9c2 cell death suppression – ATPLite luminescence, set 2, dose response (AID 602211).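 Further: potency is for protection so actives keep ATP signal up against peroxide killing.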 For orientation: ATP-based viability assays read luminescence as a measure of living cells.

One may read the IC50 as the concentration at which inhibition is half-maximal.

Calls of active or inactive are those of the source.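 How the source made its calls: active means mean IC50 at or below 10 µM; inactive means the rest.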

Regarding `CC1Nc2ncnc(N3CCN(c4ccccc4)CC3)c2N(Cc2ccc(Cl)cc2)C1=O` (configuration not stated), the IC50 was 5.41 µM.
For `O=C(NCC(=O)N(Cc1cccs1)C(C(=O)NC1CCCC1)c1ccco1)c1cccs1` (configuration not stated), the IC50 is 6.37 µM.
`Cc1cc(C)c2c(N)c(C(=O)N/N=C/c3cccnc3)sc2n1`: the IC50 was 12.1 µM (inactive).
Take `NC(=O)c1nsc(C(=O)N(CCc2ccccc2)C(C(=O)NC2CCCC2)c2ccco2)c1N` (configuration not stated): the IC50 was 11.3 µM (inactive).
For `CCOC(=O)C1=C(COC(=O)/C=C/c2ccc(F)cc2)NC(=O)NC1C` (configuration not stated) the value was 5.54 µM; for `CCOc1ccc(C(C(=O)NC2CCCC2)N(C(=O)c2snc(C(N)=O)c2N)c2cccc(O)c2)cc1` (configuration not stated), 3.28 µM; for `Brc1ccc(-c2ccc(/C=N/Nc3nc(N4CCOCC4)nc(N4CCOCC4)n3)o2)cc1`, 3.61 µM.
Turning to `CCOC(=O)N1CCN(C(=O)CSc2nc3ccccc3c(=O)n2-c2ccccc2)CC1`, the IC50 is 18.8 µM (inactive).
For `CCC1(CC)NC(=O)N(CC(=O)OCC(=O)Nc2ccccc2[N+](=O)[O-])C1=O`, the IC50 is 37.3 µM (inactive).
To `COc1cc2c(cc1OC)CN(c1nc(-c3cccnc3)nc3ccccc13)CC2` belongs 2.93 µM.
To `COc1ccccc1NC(=O)c1cc(-c2cc(OC)c(OC)c(OC)c2)nc2ccccc12` belongs 2.88 µM.
To `COc1cc(-c2cc(C(=O)OCC(=O)NC3CC3)c3ccccc3n2)cc(OC)c1OC` belongs 3.98 µM.
Consider `Nc1c(C(=O)N/N=C/c2cccnc2)oc2nc(-c3ccccc3)cc(-c3ccco3)c12`, for which the half-inhibitory concentration (IC50) was 2.86 µM.
In the case of `O=C(C[C@@H]1C/C=C/CC[C@@H](Cc2ccc(F)cc2)C(=O)O[C@@H](c2ccccc2)CNC1=O)NCCO`, the IC50 is 10.9 µM (inactive).
For `CC(=NO)C1CCC2C3CCC4CC(=NO)CCC4(C)C3C(C)(O)CC12C` (configuration not stated) the value was > 79 µM (inactive).
On to `S=C(Nc1ccc(N2CCOCC2)cc1)Nc1ccc2nc(-c3ccco3)c(-c3ccco3)nc2c1`, for which the IC50 was 10.7 µM (inactive).
Regarding `NC(=O)c1nsc(C(=O)N(Cc2ccco2)C(C(=O)NCc2ccccc2)c2ccc(O)cc2)c1N` (configuration not stated), the concentration for half-maximal inhibition (IC50) is 9.87 µM.
For `COc1cc(-c2cc3nc(NCCc4ccc(S(N)(=O)=O)cc4)ccn3n2)cc(OC)c1OC`, the IC50 was 12.1 µM (inactive).
For `COc1cc(C(=O)Nc2nc(-c3cccs3)cs2)cc(OC)c1OC` the value was 1.78 µM; for `CCOC(=O)C1CCN(c2cc3c(cc2NC(=O)c2ccc(F)cc2)n(C)c(=O)n3C)CC1`, 25.8 µM (inactive).
As for `CC(C)(C)OC(=O)N1CCC(NC(=O)c2nc[nH]c2C(=O)NCC(=O)OCc2ccccc2)CC1`, the IC50 is 1.08 µM.
To `COc1cc(NC(=O)c2cc([N+](=O)[O-])ccc2NC(=O)CN2CCN(c3ccccn3)CC2)cc(OC)c1` belongs 2.58 µM.
As to `Cc1nn(-c2ccccc2)c(N2CCCC2)c1/C=N/NC(=O)c1cc(-c2ccccn2)nc2ccccc12`, the IC50 is 7.63 µM.
Turning to `CS(=O)(=O)Nc1cccc(NC(=O)c2cccc3c(-c4cccc(C(N)=O)c4)coc23)c1`, the IC50 is 3.61 µM.
To `CC(C)(C)OC(=O)NCC12C=CC(O1)C1C(=O)N(Cc3ccccc3)C(=O)C12` (configuration not stated) belongs 2.91 µM; to `O=c1c2ccccc2nc2c3ccccc3c(NCCO)nn12`, 20.3 µM (inactive).
To `COc1cc2[nH]c(=O)n3nc(-c4ccccc4)nc3c2cc1OC` belongs 11 µM (inactive); to `Brc1ccc(-c2nn3c(-c4ccccn4)nnc3s2)o1`, 27.4 µM (inactive); to `Cc1ccccc1C1c2[nH]c3ccccc3c2C[C@H]2C(=O)N(c3ccccc3C(=O)NCCCN3CCOCC3)C(=O)N12` (some centres not stated), 17.2 µM (inactive).
Take `O=C(NCCN1CCN(c2ccccc2F)CC1)c1cccn2c(=O)c3ccccc3nc12`: the IC50 is 7.34 µM.
For the compound `COc1cc(/C=N/NC(=O)c2ccccc2)ccc1OS(=O)(=O)c1ccccc1`, the IC50 was 6.29 µM.
As for `CCOC(=O)c1cccc(Nc2nc(-c3cccnc3)nc3ccccc23)c1`, the IC50 was > 79 µM (inactive).
